The record followed here is ChEMBL document CHEMBL1156588, “Structure-activity relationships of chiral selective norepinephrine reuptake inhibitors (sNRI) with increased oxidative stability” (Bioorg Med Chem Lett, 2008).

One data set can be described thus: in vitro. Conditions: human, liver microsomes. For orientation: Liver microsomes are a subcellular fraction often used to study metabolism.
A short description of data set [1]: Terminal half life in human. The note with it: in vivo. It is filed as ADME, organism-based.

Broadly, the CLint scaled is the capacity of the preparation to metabolise the compound, expressed as a volume cleared per time. Low values mean greater metabolic stability, high ones faster metabolism. By half-life is commonly meant how long it takes for the measured level to halve.

With `CNC[C@@H]1OCc2ccccc2[C@@H]1Oc1c(F)cccc1C(F)(F)F`, the intrinsic metabolic clearance (CLint scaled) at 1 h, 1 µM in “in vitro” is at most 3 mL/min/kg.
Take `CNC[C@@H]1OCc2ccccc2[C@@H]1Oc1ccccc1C(F)(F)F`: the CLint scaled at 1 h, 1 µM in “in vitro” came to 10 mL/min/kg.
With `CNC[C@@H]1COc2ccccc2[C@@H]1Oc1ccccc1Cl`, in “in vitro”, the intrinsic metabolic clearance (CLint scaled) at 1 h, 1 µM came to 9 mL/min/kg.
The same measure, in the same setting: the figure for `CNC[C@@H]1OCc2ccccc2[C@@H]1Oc1ccccc1Cl` is 8 mL/min/kg; for `CCc1ccccc1O[C@H]1c2ccccc2OC[C@H]1CNC` it is at most 3 mL/min/kg; for `CNC[C@@H]1OCc2ccccc2[C@@H]1Oc1c(C)cccc1F` it is at most 3 mL/min/kg.
`CNCC[C@@H](Oc1ccccc1C)c1ccccc1` [ATOMOXETINE] gave a half-life in data set [1] of 180 min. In “in vitro”, this molecule displayed an intrinsic clearance (CLint scaled) at 1 h, 1 µM of 50 mL/min/kg.
In the case of `CNC[C@@H]1OCc2ccccc2[C@@H]1Oc1cccc(F)c1C`, the CLint scaled at 1 h, 1 µM in “in vitro” was found to be 21 mL/min/kg.
`CNC[C@@H]1OCc2ccccc2[C@@H]1Oc1ccc(O)cc1C` returned a CLint scaled at 1 h, 1 µM in the data set “in vitro” of 4 mL/min/kg.
